Legend:
[1] = test system: barnyard grass; assay: Test Example 3: herbicidal effect by foliage application, Wagner pot (Table 18, symbol H); type: in vivo, barnyard grass (Echinochloa crus-galli); details: 320 g/ha
Outline: (§1)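 Plants were sown in alluvial soil held under 0.1–0.5 cm standing water and grown 14 days in a greenhouse at 25–30 °C. An emulsifiable formulation, water-diluted to the set dose, was then sprayed onto the foliage, and effects were scored three weeks later using previously defined criteria.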

[2] = test system: Chinese sprangletop; assay: Test Example 3: herbicidal effect by foliage application, Wagner pot (Table 18, symbol D); type: in vivo, chinese sprangletop (Leptochloa chinensis); details: 320 g/ha
Outline: as §1

[3] = test system: rice flat sedge; assay: Test Example 3: herbicidal effect by foliage application, Wagner pot (Table 18, symbol E); type: in vivo, rice flat sedge (Cyperus iria); details: 320 g/ha
Outline: as §1

[4] = test system: southern crabgrass; assay: Test Example 4: herbicidal effect by soil treatment (Table 19, symbol F); type: in vivo, southern crabgrass (Digitaria ciliaris)
Outline: (§2)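 Scoring uses the grading scale of an earlier test, three weeks post-application. Treatment consists of spraying a diluted emulsion formulation across the surface of sterilized diluvial soil in which seeds are buried near 1.5 cm deep; boxes are kept in a greenhouse between 25° C. and 30° C.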

[5] = test system: green foxtail; assay: Test Example 4: herbicidal effect by soil treatment (Table 19, symbol G); type: in vivo, green foxtail (Setaria viridis)
Outline: as §2

[6] = test system: barnyard grass; assay: Test Example 4: herbicidal effect by soil treatment (Table 19, symbol H); type: in vivo, barnyard grass (Echinochloa crus-galli)
Outline: as §2

[7] = test system: wild oat; assay: Test Example 4: herbicidal effect by soil treatment (Table 19, symbol I); type: in vivo, wild oat (Avena fatua)
Outline: as §2

[8] = test system: blackgrass; assay: Test Example 4: herbicidal effect by soil treatment (Table 19, symbol J); type: in vivo, blackgrass (Alopecurus myosuroides)
Outline: as §2

[9] = test system: Italian ryegrass; assay: Test Example 4: herbicidal effect by soil treatment (Table 19, symbol K); type: in vivo, Italian ryegrass (Lolium multiflorum)
Outline: as §2

[10] = test system: windgrass; assay: Test Example 4: herbicidal effect by soil treatment (Table 19, symbol L); type: in vivo, windgrass (Apera spica-venti)
Outline: as §2

[11] = test system: velvetleaf; assay: Test Example 4: herbicidal effect by soil treatment (Table 19, symbol M); type: in vivo, velvetleaf (Abutilon theophrasti)
Outline: as §2

[12] = test system: redroot pigweed; assay: Test Example 4: herbicidal effect by soil treatment (Table 19, symbol N); type: in vivo, redroot pigweed (Amaranthus retroflexus)
Outline: as §2

[13] = test system: lambsquarters; assay: Test Example 4: herbicidal effect by soil treatment (Table 19, symbol O); type: in vivo, lambsquarters (Chenopodium album)
Outline: as §2

[14] = test system: chickweed; assay: Test Example 4: herbicidal effect by soil treatment (Table 19, symbol P); type: in vivo, common chickweed (Stellaria media)
Outline: as §2

[15] = test system: false cleavers; assay: Test Example 4: herbicidal effect by soil treatment (Table 19, symbol Q); type: in vivo, false cleavers (Galium spurium)
Outline: as §2

[16] = test system: persian speedwell; assay: Test Example 4: herbicidal effect by soil treatment (Table 19, symbol R); type: in vivo, Persian speedwell (Veronica persica)
Outline: as §2

[17] = test system: southern crabgrass; assay: Test Example 5: herbicidal effect by foliage application, plastic box (Table 20, symbol F); type: in vivo, southern crabgrass (Digitaria ciliaris); details: foliage application
Outline: (§3)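 Post-emergence foliar test in sterilized diluvial soil. Compound applied as water-diluted emulsion at a predetermined rate to 14-day-old plants; evaluation at three weeks.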

[18] = test system: green foxtail; assay: Test Example 5: herbicidal effect by foliage application, plastic box (Table 20, symbol G); type: in vivo, green foxtail (Setaria viridis); details: foliage application
Outline: as §3

[19] = test system: barnyard grass; assay: Test Example 5: herbicidal effect by foliage application, plastic box (Table 20, symbol H); type: in vivo, barnyard grass (Echinochloa crus-galli); details: foliage application
Outline: as §3

[20] = test system: wild oat; assay: Test Example 5: herbicidal effect by foliage application, plastic box (Table 20, symbol I); type: in vivo, wild oat (Avena fatua); details: foliage application
Outline: as §3

[21] = test system: blackgrass; assay: Test Example 5: herbicidal effect by foliage application, plastic box (Table 20, symbol J); type: in vivo, blackgrass (Alopecurus myosuroides); details: foliage application
Outline: as §3

[22] = test system: Italian ryegrass; assay: Test Example 5: herbicidal effect by foliage application, plastic box (Table 20, symbol K); type: in vivo, Italian ryegrass (Lolium multiflorum); details: foliage application
Outline: as §3

[23] = test system: windgrass; assay: Test Example 5: herbicidal effect by foliage application, plastic box (Table 20, symbol L); type: in vivo, windgrass (Apera spica-venti); details: foliage application
Outline: as §3

[24] = test system: velvetleaf; assay: Test Example 5: herbicidal effect by foliage application, plastic box (Table 20, symbol M); type: in vivo, velvetleaf (Abutilon theophrasti); details: foliage application
Outline: as §3

[25] = test system: redroot pigweed; assay: Test Example 5: herbicidal effect by foliage application, plastic box (Table 20, symbol N); type: in vivo, redroot pigweed (Amaranthus retroflexus); details: foliage application
Outline: as §3

[26] = test system: lambsquarters; assay: Test Example 5: herbicidal effect by foliage application, plastic box (Table 20, symbol O); type: in vivo, lambsquarters (Chenopodium album); details: foliage application
Outline: as §3

[27] = test system: chickweed; assay: Test Example 5: herbicidal effect by foliage application, plastic box (Table 20, symbol P); type: in vivo, common chickweed (Stellaria media); details: foliage application
Outline: as §3

[28] = test system: false cleavers; assay: Test Example 5: herbicidal effect by foliage application, plastic box (Table 20, symbol Q); type: in vivo, false cleavers (Galium spurium); details: foliage application
Outline: as §3

[29] = test system: persian speedwell; assay: Test Example 5: herbicidal effect by foliage application, plastic box (Table 20, symbol R); type: in vivo, Persian speedwell (Veronica persica); details: foliage application
Outline: as §3

[30] = amount of applied herbicide 320 g/ha
[31] = AAH 320 g/ha, three weeks after application
[32] = 320 g/ha, evaluated three weeks after application

SMILES: Cc1nn(C)c(=O)c(-c2c(-c3cccc4c3OCC4)sc3ccccc23)c1O [1-103]
- herbicidal effect on H (barnyard grass), rating 0-5 [1]: 3 (Herbicidal rate of 40% or more and less than 70%)
- herbicidal effect on D (Chinese sprangletop), rating 0-5 [2]: 4 (Herbicidal rate of 70% or more and less than 90%)
- herbicidal effect on E (rice flat sedge), rating 0-5 [3]: 3 (Herbicidal rate of 40% or more and less than 70%)
- herbicidal effect rating, F: southern crabgrass [4, 30]: 2 (Herbicidal rate of 20% or more and less than 40%)
- herbicidal effect rating, G: green foxtail [5, 30]: 3 (Herbicidal rate of 40% or more and less than 70%)
- herbicidal effect rating, H: barnyard grass [6, 30]: 2 (Herbicidal rate of 20% or more and less than 40%)
- herbicidal effect rating, I: wild oat [7, 30]: 0 (Herbicidal rate of 5% or less (almost no effect))
- herbicidal effect rating, J: blackgrass [8, 30]: 0 (Herbicidal rate of 5% or less (almost no effect))
- herbicidal effect rating, K: Italian ryegrass [9, 30]: 0 (Herbicidal rate of 5% or less (almost no effect))
- herbicidal effect rating, L: windgrass [10, 30]: 0 (Herbicidal rate of 5% or less (almost no effect))
- herbicidal effect rating, M: velvetleaf [11, 30]: 0 (Herbicidal rate of 5% or less (almost no effect))
- herbicidal effect rating, N: redroot pigweed [12, 30]: 3 (Herbicidal rate of 40% or more and less than 70%)
- herbicidal effect rating, O: lambsquarters [13, 30]: 3 (Herbicidal rate of 40% or more and less than 70%)
- herbicidal effect rating, P: chickweed [14, 30]: 1 (Herbicidal rate of 5% or more and less than 20%)
- herbicidal effect rating, Q: false cleavers [15, 30]: 0 (Herbicidal rate of 5% or less (almost no effect))
- herbicidal effect rating, R: persian speedwell [16, 30]: 2 (Herbicidal rate of 20% or more and less than 40%)
- F: southern crabgrass, herbicidal effect [17, 31]: 3 (Herbicidal rate of 40% or more and less than 70%)
- G: green foxtail, herbicidal effect [18, 31]: 3 (Herbicidal rate of 40% or more and less than 70%)
- H: barnyard grass, herbicidal effect [19, 31]: 0 (Herbicidal rate of 5% or less (almost no effect))
- I: wild oat, herbicidal effect [20, 31]: 0 (Herbicidal rate of 5% or less (almost no effect))
- J: blackgrass, herbicidal effect [21, 31]: 3 (Herbicidal rate of 40% or more and less than 70%)
- K: Italian ryegrass, herbicidal effect [22, 31]: 3 (Herbicidal rate of 40% or more and less than 70%)
- L: windgrass, herbicidal effect [23, 31]: 0 (Herbicidal rate of 5% or less (almost no effect))
- M: velvetleaf, herbicidal effect [24, 31]: 4 (Herbicidal rate of 70% or more and less than 90%)
- N: redroot pigweed, herbicidal effect [25, 31]: 3 (Herbicidal rate of 40% or more and less than 70%)
- O: lambsquarters, herbicidal effect [26, 31]: 3 (Herbicidal rate of 40% or more and less than 70%)
- P: chickweed, herbicidal effect [27, 31]: 5 (Herbicidal rate of 90% or more (almost completely withered))
- Q: false cleavers, herbicidal effect [28, 31]: 4 (Herbicidal rate of 70% or more and less than 90%)
- R: persian speedwell, herbicidal effect [29, 31]: 5 (Herbicidal rate of 90% or more (almost completely withered))

SMILES: CCCC(=O)Oc1c(C)nn(C)c(=O)c1-c1c(-c2ccc(F)cc2)sc2ccc(Cl)cc12 [2-098]
- herbicidal effect on H (barnyard grass), rating 0-5 [1]: 5 (Herbicidal rate of 90% or more (almost completely withered))
- herbicidal effect on D (Chinese sprangletop), rating 0-5 [2]: 4 (Herbicidal rate of 70% or more and less than 90%)
- herbicidal effect on E (rice flat sedge), rating 0-5 [3]: 2 (Herbicidal rate of 20% or more and less than 40%)
- herbicidal effect rating, F: southern crabgrass ([4]; 320 g/ha): 3 (Herbicidal rate of 40% or more and less than 70%)
- herbicidal effect rating, G: green foxtail ([5]; 320 g/ha): 0 (Herbicidal rate of 5% or less (almost no effect))
- herbicidal effect rating, H: barnyard grass ([6]; 320 g/ha): 1 (Herbicidal rate of 5% or more and less than 20%)
- herbicidal effect rating, I: wild oat ([7]; 320 g/ha): 2 (Herbicidal rate of 20% or more and less than 40%)
- herbicidal effect rating, J: blackgrass ([8]; 320 g/ha): 0 (Herbicidal rate of 5% or less (almost no effect))
- herbicidal effect rating, K: Italian ryegrass ([9]; 320 g/ha): 5 (Herbicidal rate of 90% or more (almost completely withered))
- herbicidal effect rating, L: windgrass ([10]; 320 g/ha): 3 (Herbicidal rate of 40% or more and less than 70%)
- herbicidal effect rating, M: velvetleaf ([11]; 320 g/ha): 3 (Herbicidal rate of 40% or more and less than 70%)
- herbicidal effect rating, N: redroot pigweed ([12]; 320 g/ha): 4 (Herbicidal rate of 70% or more and less than 90%)
- herbicidal effect rating, O: lambsquarters ([13]; 320 g/ha): 4 (Herbicidal rate of 70% or more and less than 90%)
- herbicidal effect rating, P: chickweed ([14]; 320 g/ha): 4 (Herbicidal rate of 70% or more and less than 90%)
- herbicidal effect rating, Q: false cleavers ([15]; 320 g/ha): 2 (Herbicidal rate of 20% or more and less than 40%)
- herbicidal effect rating, R: persian speedwell ([16]; 320 g/ha): 4 (Herbicidal rate of 70% or more and less than 90%)
- herbicidal effect on F: southern crabgrass [17, 32]: 5 (Herbicidal rate of 90% or more (almost completely withered))
- herbicidal effect on G: green foxtail [18, 32]: 4 (Herbicidal rate of 70% or more and less than 90%)
- herbicidal effect on H: barnyard grass [19, 32]: 4 (Herbicidal rate of 70% or more and less than 90%)
- herbicidal effect on I: wild oat [20, 32]: 5 (Herbicidal rate of 90% or more (almost completely withered))
- herbicidal effect on J: blackgrass [21, 32]: 4 (Herbicidal rate of 70% or more and less than 90%)
- herbicidal effect on K: Italian ryegrass [22, 32]: 5 (Herbicidal rate of 90% or more (almost completely withered))
- herbicidal effect on L: windgrass [23, 32]: 5 (Herbicidal rate of 90% or more (almost completely withered))
- herbicidal effect on M: velvetleaf [24, 32]: 4 (Herbicidal rate of 70% or more and less than 90%)
- herbicidal effect on N: redroot pigweed [25, 32]: 5 (Herbicidal rate of 90% or more (almost completely withered))
- herbicidal effect on O: lambsquarters [26, 32]: 4 (Herbicidal rate of 70% or more and less than 90%)
- herbicidal effect on P: chickweed [27, 32]: 5 (Herbicidal rate of 90% or more (almost completely withered))
- herbicidal effect on Q: false cleavers [28, 32]: 3 (Herbicidal rate of 40% or more and less than 70%)
- herbicidal effect on R: persian speedwell [29, 32]: 5 (Herbicidal rate of 90% or more (almost completely withered))

Reference: patent US20230085307A1, “PYRIDAZINONE COMPOUND AND HERBICIDE” (NISSAN CHEMICAL CORPORATION, priority 2019, published 2023)
